From article doi:10.1101/2025.11.04.686469, “Discovery of Host-Directed Small Molecules with Broad Anti-Leishmanial Efficacy” (bioRxiv, 2025)

Tests used:
lysozyme [1] = molecular target: T1, lysozyme (Homo sapiens, UniProt P61626); test: Affinity capture with 197-bead in Leishmania infected macrophage lysate; type: binding; conditions: 197-bead vs control bead
T1 construct: endogenous in cells; host or cells: THP-1 cells differentiated with PMA and infected with L. mexicana promastigotes; cell lysate
T1 sequence (P61626 19-148): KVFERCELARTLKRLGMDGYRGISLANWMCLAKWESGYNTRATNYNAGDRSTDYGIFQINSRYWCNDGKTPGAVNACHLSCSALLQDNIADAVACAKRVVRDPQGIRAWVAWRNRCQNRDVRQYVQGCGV
Description: (§1) To generate cell lysate, ten million THP-1 cells were plated overnight in a 10cm dish, then differentiated with 150 nM phorbol 12-myristate 13-acetate (PMA) for 72 hours. The resulting macrophages were infected with L. mexicana promastigotes at a multiplicity of infection of 1:10 and incubated for 18 hours. After infection, cells were washed three times with PBS to remove extracellular promastigotes. Cells were then collected by scraping and pelleted with centrifugation. The cell pellet was resuspended in cell buffer (50mM Tris-HCl, 150mM NaCl, 2mM EDTA, 0.5% triton-x-100) and subjected to five freeze-thaw cycles. Samples were centrifuged 14,000g x 10 minutes to remove cellular debris. Protein concentration of supernatant was determined by BCA assay and cell lysate was stored at −80°C until further use.
Functionalized agarose beads were made as follows. NHS activated agarose beads were washed three times to remove acetone and resuspended in PBS to create a slurry. 494 (197 with ligation chemical handle) was prepared in 0.3 mL at 25mM in DMSO and 1.7 mL PBS was added to 1 mL of agarose slurry for a final volume of 3 mL at a concentration of 2.5mM (10% v/v DMSO). […]
500 μg cell lysate was incubated with 200 μL slurry at a final volume of 1 mL for 1 hr. […] Peptides were extracted, acidified, desalted using C18 spin columns, and analyzed by LC-MS/MS using Thermo Easy nLC 1200-QExactive HF. […]

lysozyme [2] = molecular target: T1, lysozyme; test: Thermal proteome profiling in Leishmania infected macrophage lysate; type: binding; conditions: ligand 100 μM
Description: as §1, with “10” for “1:10”, “phosphate buffered saline” for “cell buffer (50mM Tris-HCl, 150mM NaCl, 2mM EDTA, 0.5% triton-x-100)”, “−80 °C” for “−80°C”
The cell lysate was divided into two portions. One portion was spiked with the 197 ligand in DMSO to generate the with ligand sample; and the other portion was spiked with DMSO to generate the without ligand sample. The final concentration of […] in the with ligand sample was 100 μM, and both the without and with ligand samples contained 1% DMSO. The with and without samples were each subjected five replicate one-pot TPP analyses like that previously described.[20–22] […]

Q: For `O=C(CNCc1cccc(F)c1)Nc1ccc(-n2cc(C(F)(F)F)nc2-c2ccc(-c3ccc(C(F)(F)F)cc3)cc2)cc1` [Compound 197], which “affinity capture abundance of lysozyme, Log2 fold change” value (lysozyme [1]) is on record?
A: The value was 6.57.

Q: And the “TPP z-score for lysozyme” value (lysozyme [2])?
A: The value was 4.32.
